From patent US7807368B2, “Cyclin-dependent kinase inhibitors as targets for opiod growth factor treatment” (priority 2006, dated 2010) come the findings set out here.

One test deals with Capan-2 cells. Nature of the test: Growth curves of Capan-2 cells transfected with p21 siRNA or negative control siRNA. It is filed as cell-based, human. The procedure:
(§1) Human pancreatic cancer cell lines BxPC-3, PANC-1, and Capan-2 were obtained from the American Type Culture Collection (Manassas, Va.), and cultured in RPMI, Dulbecco's Modified Medium, or McCoy's 5A medium, respectively. All media were supplemented with 10% fetal bovine serum, 1.2% sodium bicarbonate, and 0.25% antibiotics (5000 units/ml penicillin, 5 μg/ml streptomycin and 10 μg/ml neomycin). OGF was purchased from Sigma-Aldrich (St. Louis, Mo.), dissolved in sterile water, and used at a final concentration of 10^−6 M.
(§2) The p21-targeted siRNAs were obtained from Santa Cruz Biotechnology, and negative control siRNAs were purchased from Ambion (Ambion, Inc., Austin, Tex.). For transfection, 2×10^5 cells per well were seeded in 6-well plates containing 1 ml of media without antibiotics. For each well, 1 μl of siRNA stock (20 μM) was mixed with 175 μl of serum-free media. Two μl of Oligofectamine reagent (Invitrogen, Carlsbad, Calif.) was added to prewashed cells in each well, making the final concentration for siRNA approximately 20 nM. Cells were incubated for 4 hours at 37° C. prior to the addition of OGF. Eighteen hours later, 1 ml fresh complete media with or without OGF was added to the cultures; media and OGF were replaced daily. At the indicated time points, cells were collected for growth curves or Western blotting.

The subject of another test is PANC-1 cells. Nature of the test: Growth curves of PANC-1 cells transfected with p21 siRNA or negative control siRNA. It counts as cell-based, human. Conditions: for decrease of growth: PANC-1 cells transfected with negative control siRNAs. The procedure:
as §1, §2

[Met^5]-enkephalin [OGF]: in the test on Capan-2 cells (Capan-2 cells transfected with negative control siRNA, 48, 72, and 96 hours), the effect on growth result is “did depress growth”. Besides, the “effect on growth of cells lacking p21” value in the test on Capan-2 cells (Capan-2 cells transfected with p21 siRNA) was “no inhibitory action”; in the test on PANC-1 cells (PANC-1 cells transfected with p21 siRNA), “no inhibitory effect”. For the same substance, the decrease of growth with PANC-1 cells (72 hours) is reported as 34.1%; in the test on PANC-1 cells (96 hours), 35.5%.
